Entries after “also recorded” stand apart in the source; their conditions may differ.
Assays:
HCT116 cells = experiment: Ratiometric SAM imaging in HCT116 cells; format: cell-based; settings: 30 mM cycloleucine, sensor 5-1
Description: The control constitutively fluorescent Squash was not affected by withdrawal of threonine and methionine. Scale bar, 20 μm. […] Overall, low cell-to-cell variation was seen (n=8 cells from three separate experiments). […] The rate of SAM drop was slower than the rate in cells cultured in +2i (n=8 cells from three separate experiments). […] SAM levels were measured at 20 minute time intervals after methionine withdrawal and after methionine (100 μM) addition. Cells indicated with a white arrow start with a very high level of SAM and show a slow drop in SAM levels over time, indicating low SAM utilization. Scale bar, 20 μm. […]
5-1 was used because it has higher dynamic range. […] To test if this also holds in HCT116 cells, Squash-SAM sensor 5-1 was expressed in HCT116 cells and SAM level was monitored after threonine depletion. […] To test this, Squash-SAM sensor 5-1 was expressed in HCT116 cells and SAM levels were monitored for 240 minutes after depleting both threonine and methionine. […] The average cellular ratio of O/G fluorescence was quantified for these cells at 15 minute intervals after cycloleucine (30 mM final) treatment. […]
After placing the plates on a Tokai Hit stage top incubator (37° C. and 5% CO2), live fluorescence images were taken with a Nikon Eclipse Ti-E microscope fitted with a CoolSnap HQ2 CCD camera (Photometrics) through a 40× air objective (NA 0.75). […]

mES cells = experiment: Ratiometric SAM imaging in mES cells; format: cell-based, Mouse; settings: 30 mM cycloleucine, +2i and −2i media, sensor 4-2
HEK293T cells = experiment: SAM sensor imaging in HEK293T cells; format: cell-based; settings: 30 mM cycloleucine, within 30 minutes
Description: FIG. 4A is a schematic showing the design of the Squash-SAM sensor transducer library. The SAM-III aptamer (top) was fused to Squash (bottom) through a transducer helix (middle). The sensor was selected from a library of randomized transducer sequences generated using the sprouts/clips method. FIG. 4B is a bar graph showing the results of an experiment in which, after three rounds of SELEX, two Squash-SAM sensors, 5-1 and 4-2, were tested for SAM-induced fluorescence. Squash-SAM sensor RNAs (1 μM) were incubated with 10 μM DFHO and 0 or 0.1 mM SAM for 1 hour at 37° C. and then fluorescence was measured (ex. 495 nm; em. 562 nm). Data represent mean values±s.d. for n=3 independent experiments. FIGS. 4C-4D are plots showing the kinetics of fluorescence activation (FIG. 4C) and deactivation (FIG. 4D) of Squash-SAM sensors. Sensor activation was induced by adding 0.1 mM SAM to 1 μM sensor RNAs and 10 μM DFHO at 37° C. Deactivation was measured after removal of SAM by gel filtration. […] SAM binding activates the orange fluorescence by promoting Squash folding and subsequent binding with DFHO. The constitutive green fluorescence of Broccoli-BI is used for normalization, thus eliminating the confounding effect of cell-to-cell variation in sensor expression level, and different fluorescence measurements in thick vs. thin parts of the cell. […] The ratio was measured at 10 minute time intervals. […]

[1] = On and off rates of aptamer binding to DFHO; settings: 50 nM RNA
Description: FIGS. 7A-7H provide photophysical and biophysical characterization of Squash. […] Excess RNA was used to ensure binding of nearly all fluorophore. […] Data represent mean values±s.d. for n=3 independent experiments. […] The fluorescence signal trace was fitted with a monoexponential curve to extract kobs. kobs was plotted as a function of total RNA (50 nM RNA) and fluorophore concentration. kon and koff were extracted as the slope and intercept, respectively. Squash koff (0.014±0.008 s^−1) is very similar to that of Corn (0.018±0.002 s^−1). kon for Squash-DFHO (162300±8100 M^−1 s^−1) is seven-times higher than Corn-DFHO (23000±3000 M^−1 s^−1) which could be due to the high folding of Squash. […]
To measure on and off rates of Squash binding to DFHO, the same protocol that was reported previously to measure kinetic rates for Spinach-DFHBI was used (Han et al., “Understanding the Photophysics of the Spinach-DFHBI RNA Aptamer-Fluorogen Complex to Improve Live-Cell RNA Imaging,” J. Am. Chem. Soc. 135:19033-19038 (2013), which is hereby incorporated by reference in its entirety). Briefly, 50 nM RNA was mixed with different amounts of DFHO and binding kinetics was monitored on the fluorimeter as fluorescence signal increases. Each fluorescence signal trace was fitted with a monoexponential curve and the observed rate constant (kobs) was extracted. […]

[2] = Photophysical properties of fluorophores and RNA-fluorophore complexes (Squash study); format: physicochemical; settings: 10 μM RNA, 1 μM DFHO
Description: All RNAs used for in vitro studies (except the initial hits from SELEX and the DE2-6 mutants) were purified using 8% denaturing PAGE (7M urea) and eluted in 0.3 M NaOAc (pH 5.2) overnight. The RNA was ethanol precipitated and quantified using absorbance in a NanoDrop 2000 spectrometer. All in vitro RNA properties were measured in 40 mM HEPES-KOH (pH 7.4), 100 mM KCl, 0.5 mM MgCl2 buffer unless specified.
Absorption, excitation, and emission spectra were measured using conditions where the RNA is in excess and the fluorophore is limiting to ensure that no free fluorophore contributes to the absorbance or fluorescence signal (FIGS. 7A-7D).
All quantum yields were determined by comparing each RNA-fluorophore complex with Broccli-DFHBI-1T or Corn-DFHO. All measurements for quantum yield were taken in the presence of excess RNA (10 μM final) compared to the fluorophores (0.2 μM final) to avoid interference from unbound fluorophore. The integral of the emission spectra for each Squash-fluorophore complex was compared with the corresponding integrals for Broccoli or Corn to calculate the quantum yield.

[3] = Fluorescence activation of DFAME by aptamers in vitro; format: biochemical; settings: 20 μM RNA, 2 μM dye
Description: To test whether Beetroot can activate DFHO, the fluorescence emission spectrum of the Beetroot-DFHO complex was measured. In brief, 20 μM Beetroot and 2 μM DFHO were mixed, and the fluorescence emission of the Beetroot-DFHO complex was measured. […] To test whether Beetroot can activate DFHBI-1T, the fluorescence emission spectrum of the Beetroot-DFHBI-1T complex was measured using the same protocol described in FIG. 32A. […] To test whether Beetroot can activate BI, the fluorescence emission spectrum of the Beetroot-BI complex was measured using the same protocol described in FIG. 32A. […] To test whether Corn can activate DFAME, the fluorescence emission spectrum of the Corn-DFAME complex was measured using the same protocol described in FIG. 32A.
The eluted RNAs were then ethanol precipitated, reverse transcribed, PCR amplified and in vitro transcribed to yield the pool for the next SELEX round. The presence of fluorescent RNA species in each pool was assessed by mixing 20 μM RNA and 10 μM DFAME and measuring fluorescence emission of this solution on a fluorometer in comparison with the fluorophore alone. At this point, RNAs were cloned into bacterial expression plasmids for FACS-based screening.
dsDNA encoding the top-performing RNA sequences from the brightest bacterial colonies was PCR amplified from the purified plasmids. […] The resulting RNA was then purified using Zymo RNA concentrator columns and quantified by absorbance using a Thermo Scientific NanoDrop 2000 spectrophotometer. For absorption, excitation and emission spectra measurements, “excess RNA” conditions and limiting amount of fluorophore was used to ensure that no free fluorophore contributes to the absorbance or fluorescence signal. The RNA concentration used for fluorescence and absorbance measurements was 20 μM and 50 μM, respectively, while the dye concentration was 2 μM and 5 μM, respectively. All in vitro RNA properties were measured in 40 mM HEPES pH 7.4, 100 mM KCl, 5 mM MgCl2 buffer, unless specified.

| Compound | SAM levels after cycloleucine (HCT116 cells) | SAM levels after cycloleucine (mES cells) | Sensor signal (SAM level) after cycloleucine (HEK293T cells) | koff [1] | Emission maxima with DFHO [2] | Binding and activation of DFAME fluorescence [3] |
| --- | --- | --- | --- | --- | --- | --- |
| NC1(C(=O)O)CCCC1 [cycloleucine] | marked drop in SAM | rapid drop of cellular SAM levels; also recorded: markedly depleted | rapid decrease in fluorescence; also recorded: markedly reduced | – | – | – |
| Corn: previously reported RNA aptamer that homodimerizes and activates DFHO, SEQ ID NO:103 (CGAGGAAGGAGGUCUGAGGAGGUCACUG; RNA, backbone not given here) [reference compound] | – | – | – | 0.018 ± 0.002 s⁻¹ | 545 nm | weakly binds and activates; also recorded: only weakly bind and activate |
